Patent US9517993B2, “Antagonists of the toll-like receptor 1/2 complex” (THE REGENTS OF THE UNIVERSITY OF COLORADO, a body corporate, priority 2012, dated 2016)

Experiments:
Type in all cases: cell-based
TLR2/6 = target: T1, TLR2/6 (Mus musculus, UniProt Q9EPW9+Q9QUN7); test: RAW 264.7 nitric oxide TLR selectivity assay (FSL-1); details: 10 ng/mL FSL-1
T1 construct: RAW 264.7 Cells Nitric Oxide TLR Selectivity Assay; endogenous in cells; host or cells: RAW 264.7
Experimental: (§1) RAW 264.7 (Mouse leukaemic monocyte macrophage cell line) cells were grown in RPMI 1640 medium, supplemented with 10% FBS, penicillin (100 U/mL) and streptomycin ([…]). RAW cells were then planted in 96-well plates at 80,000 cells per well and grown for 24 h in the media descried previously at 37° C. in a 5% CO2 humidified incubator. After 24 h, non-adherent cells and media were removed and replaced with fresh unsupplemented RPMI 1640 medium. The adherent macrophages were treated with Pam3CSK4 (CAS No. 112208-00-1; a synthetic triacylated lipopeptide (LP) that mimics the acylated amino terminus of bacterial LPs) (200 ng/mL) (Invivogen, USA), an agonist of TLR1/2, and then added different concentrates of potential inhibitor. Two rows were only treated with Pam3CSK4 as control. Plates were then incubated for an additional 24 h. Following incubation 100 μL of media was removed and added to flat black 96-well microfluor plates (Thermo Scientific, MA, USA). To each well, 10 μL of 2,3-diaminonaphthalene (0.05 mg/mL in 0.62 M aqueous HCl solution) was added and incubated for 15 min in the dark. The reaction was quenched by addition of 5 μL of a 3 M aqueous NaOH solution and the plate was read on Beckman Coulter DTX880 reader (Beckman Coulter, Calif., USA) with excitation at 365 nm and emission at 450 nm. The nitrite (a stable metabolite of nitric oxide) concentration was determined from a nitrite standard curve. The inhibition rate (%) of NO release was determined using the following formula: Inhibition (%)=[Pam3CSK4(OD450) […]]/[Pam3CSK4 (OD450)−Control (OD450)]×100. The IC50 values for both inhibition and cytotoxicity were determined graphically using software Origin v7.5.
This assay was run in a similar manor as the “In Vitro TLR1/2 Inhibition Assay”. High molecule weight Poly (I:C), LPS (lipopolysaccharide), FSL-1 (Synthetic diacylated lipoprotein—TLR2/TLR6 ligand commercially available from Invivogen, USA), and R848 ([…]) were used to selectively activate TLR3, TLR4, TLR2/6 and TLR7 in place of Pam3CSK4, respectively.

TLR3 = target: T2, TLR3 (Mus musculus, UniProt Q99MB1); test: RAW 264.7 nitric oxide TLR selectivity assay (Poly (I:C)); details: 15 μg/mL Poly (I:C)
T2 construct: RAW 264.7 Cells Nitric Oxide TLR Selectivity Assay; endogenous in cells; host or cells: RAW 264.7
T2 sequence (Q99MB1 26-905): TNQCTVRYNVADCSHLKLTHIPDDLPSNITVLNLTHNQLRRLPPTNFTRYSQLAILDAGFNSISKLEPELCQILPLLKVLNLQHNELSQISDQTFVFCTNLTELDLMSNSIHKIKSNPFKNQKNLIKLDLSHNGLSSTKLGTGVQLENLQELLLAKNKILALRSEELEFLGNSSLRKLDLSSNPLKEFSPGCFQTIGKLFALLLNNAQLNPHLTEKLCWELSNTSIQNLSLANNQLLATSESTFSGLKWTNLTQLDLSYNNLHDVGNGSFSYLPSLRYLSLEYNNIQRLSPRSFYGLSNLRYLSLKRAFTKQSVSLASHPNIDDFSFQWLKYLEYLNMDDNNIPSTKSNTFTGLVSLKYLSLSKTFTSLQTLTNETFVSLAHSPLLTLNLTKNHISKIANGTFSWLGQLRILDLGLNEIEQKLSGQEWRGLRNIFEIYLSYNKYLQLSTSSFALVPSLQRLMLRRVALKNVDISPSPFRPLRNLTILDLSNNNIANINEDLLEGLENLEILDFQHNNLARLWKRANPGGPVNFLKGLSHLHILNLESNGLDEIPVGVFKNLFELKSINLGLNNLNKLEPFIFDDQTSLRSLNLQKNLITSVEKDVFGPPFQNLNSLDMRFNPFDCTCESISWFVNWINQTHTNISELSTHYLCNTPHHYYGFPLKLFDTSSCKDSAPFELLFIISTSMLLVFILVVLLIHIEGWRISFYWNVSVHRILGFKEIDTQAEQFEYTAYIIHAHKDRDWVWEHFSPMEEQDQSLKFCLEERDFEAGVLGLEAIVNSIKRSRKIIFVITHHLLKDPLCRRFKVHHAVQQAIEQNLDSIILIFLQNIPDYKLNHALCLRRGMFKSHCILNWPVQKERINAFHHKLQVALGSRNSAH
Experimental: as §1, with “Plates were then incubated for an additional 24 h. Following incubation 100 μL of media was removed and added to flat black 96-well microfluor plates (Thermo Scientific, MA, USA). To each well, 10 μL of 2,3-diaminonaphthalene (0.05 mg/mL in 0.62 M aqueous HCl solution) was added and incubated for 15 min in the dark.” left out, “v7.5. […]” for “v7.5.”

TLR7 = target: T3, TLR7 (Mus musculus, UniProt P58681); test: RAW 264.7 nitric oxide TLR selectivity assay (R848); details: 100 nM R848
T3 construct: RAW 264.7 Cells Nitric Oxide TLR Selectivity Assay; endogenous in cells; host or cells: RAW 264.7
T3 sequence (P58681 27-1050): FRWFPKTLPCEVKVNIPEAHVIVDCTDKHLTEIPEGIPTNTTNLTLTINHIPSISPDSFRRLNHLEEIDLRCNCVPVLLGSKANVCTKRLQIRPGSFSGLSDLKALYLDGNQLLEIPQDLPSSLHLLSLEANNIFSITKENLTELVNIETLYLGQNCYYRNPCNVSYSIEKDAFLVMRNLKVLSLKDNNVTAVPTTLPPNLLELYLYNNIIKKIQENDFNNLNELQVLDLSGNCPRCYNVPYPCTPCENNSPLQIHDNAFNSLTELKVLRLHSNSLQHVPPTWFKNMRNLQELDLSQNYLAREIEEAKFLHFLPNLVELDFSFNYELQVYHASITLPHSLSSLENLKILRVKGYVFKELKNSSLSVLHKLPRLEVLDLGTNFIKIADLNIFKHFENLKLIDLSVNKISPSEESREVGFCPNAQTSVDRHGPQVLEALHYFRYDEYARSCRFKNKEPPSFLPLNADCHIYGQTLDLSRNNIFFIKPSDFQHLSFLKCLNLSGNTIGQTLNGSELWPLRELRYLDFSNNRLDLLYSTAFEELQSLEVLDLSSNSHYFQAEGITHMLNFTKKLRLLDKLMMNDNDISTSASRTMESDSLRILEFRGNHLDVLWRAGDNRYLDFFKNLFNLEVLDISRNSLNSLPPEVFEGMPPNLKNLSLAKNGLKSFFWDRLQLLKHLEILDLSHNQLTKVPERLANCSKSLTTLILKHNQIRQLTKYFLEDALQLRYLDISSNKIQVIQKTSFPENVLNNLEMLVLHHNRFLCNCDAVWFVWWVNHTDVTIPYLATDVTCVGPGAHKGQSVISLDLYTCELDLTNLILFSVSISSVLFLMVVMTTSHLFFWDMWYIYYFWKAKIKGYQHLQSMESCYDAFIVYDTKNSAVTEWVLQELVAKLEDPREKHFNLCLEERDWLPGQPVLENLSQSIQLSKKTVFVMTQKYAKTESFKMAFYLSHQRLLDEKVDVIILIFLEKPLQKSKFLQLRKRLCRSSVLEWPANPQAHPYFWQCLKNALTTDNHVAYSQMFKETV
Experimental: as §1, with “Plates were then incubated for an additional 24 h. Following incubation 100 μL of media was removed and added to flat black 96-well microfluor plates (Thermo Scientific, MA, USA). To each well, 10 μL of 2,3-diaminonaphthalene (0.05 mg/mL in 0.62 M aqueous HCl solution) was added and incubated for 15 min in the dark.” left out, “v7.5. […]” for “v7.5.”

T1 sequence (Q9QUN7 25-784): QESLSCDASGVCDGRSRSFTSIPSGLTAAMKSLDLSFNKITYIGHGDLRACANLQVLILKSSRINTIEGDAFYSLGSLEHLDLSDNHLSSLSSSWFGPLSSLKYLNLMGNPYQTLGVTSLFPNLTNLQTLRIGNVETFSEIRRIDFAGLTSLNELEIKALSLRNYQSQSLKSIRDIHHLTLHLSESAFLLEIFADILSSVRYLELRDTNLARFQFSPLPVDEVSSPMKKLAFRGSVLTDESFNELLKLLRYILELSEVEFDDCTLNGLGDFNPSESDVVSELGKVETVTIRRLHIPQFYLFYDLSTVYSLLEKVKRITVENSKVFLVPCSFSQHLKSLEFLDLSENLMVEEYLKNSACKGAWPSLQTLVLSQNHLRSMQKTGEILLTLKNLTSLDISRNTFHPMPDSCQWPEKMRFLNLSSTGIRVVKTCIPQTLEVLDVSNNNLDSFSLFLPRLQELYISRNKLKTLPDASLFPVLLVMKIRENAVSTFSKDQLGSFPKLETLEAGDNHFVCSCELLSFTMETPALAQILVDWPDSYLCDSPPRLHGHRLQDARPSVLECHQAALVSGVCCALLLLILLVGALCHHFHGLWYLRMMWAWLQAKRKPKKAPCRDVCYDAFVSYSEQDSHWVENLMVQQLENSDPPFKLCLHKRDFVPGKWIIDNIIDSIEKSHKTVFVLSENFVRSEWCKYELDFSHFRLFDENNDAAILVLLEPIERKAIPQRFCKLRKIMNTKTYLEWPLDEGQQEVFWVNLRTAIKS
T1 sequence (Q9EPW9 28-795): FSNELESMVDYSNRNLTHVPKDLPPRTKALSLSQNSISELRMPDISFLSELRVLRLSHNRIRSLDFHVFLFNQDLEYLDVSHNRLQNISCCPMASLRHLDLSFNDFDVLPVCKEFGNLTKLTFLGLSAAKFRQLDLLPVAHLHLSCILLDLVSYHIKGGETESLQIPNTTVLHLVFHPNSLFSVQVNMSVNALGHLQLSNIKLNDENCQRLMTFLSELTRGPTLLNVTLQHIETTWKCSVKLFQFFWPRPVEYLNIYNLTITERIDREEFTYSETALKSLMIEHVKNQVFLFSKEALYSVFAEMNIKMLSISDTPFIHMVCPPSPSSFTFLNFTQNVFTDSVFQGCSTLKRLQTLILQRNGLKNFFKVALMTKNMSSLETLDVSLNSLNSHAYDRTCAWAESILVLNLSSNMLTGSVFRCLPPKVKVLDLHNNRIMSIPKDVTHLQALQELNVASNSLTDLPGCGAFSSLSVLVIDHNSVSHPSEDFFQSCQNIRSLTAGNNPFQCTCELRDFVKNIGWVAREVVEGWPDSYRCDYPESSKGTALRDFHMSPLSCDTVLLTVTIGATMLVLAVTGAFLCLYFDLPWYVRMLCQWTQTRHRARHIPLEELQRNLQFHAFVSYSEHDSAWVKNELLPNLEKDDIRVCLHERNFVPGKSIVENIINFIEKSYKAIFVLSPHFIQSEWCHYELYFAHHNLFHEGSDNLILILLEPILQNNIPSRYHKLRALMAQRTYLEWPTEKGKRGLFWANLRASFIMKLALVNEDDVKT

inhibition of TLR2/6 signaling (TLR2/6; 3 μM compound) | inhibition of TLR3 signaling (TLR3; 3 μM compound) | inhibition of TLR7 signaling (TLR7; 3 μM compound) | inhibition of TLR2/6 signaling (TLR2/6; 0.5 μM compound) | inhibition of TLR2/6 signaling (TLR2/6; 0.5 μM compound, listed as Compound 17) | inhibition of TLR3 signaling (TLR3; 0.5 μM compound) | inhibition of TLR7 signaling (TLR7; 0.5 μM compound) | Structure (SMILES)
no other homologous TLRs | no other homologous TLRs | no other homologous TLRs |  |  |  |  | O=c1c(O)cccc2cc(O)c(O)c(O)c12 [NCI35676, purpurogallin, reference compound]
 |  |  | no significant inhibition | without affecting other TLRs | without affecting other TLRs | without affecting other TLRs | CCCCCCOC(=O)c1cc(O)c(=O)c2c(O)c(O)c(OC)cc2c1 [compound 17, Hexyl 3,4,6-trihydroxy-2-methoxy-5-oxo-5H-benzo[7]annulene-8-carboxylate]
